According to ChEMBL document CHEMBL1926654, “Design and synthesis of novel β-diketo derivatives as HIV-1 integrase inhibitors” (Bioorg Med Chem, 2012):

Experiments:
[1] = target: Human immunodeficiency virus type 1 integrase (Human immunodeficiency virus 1, UniProt Q7ZJM1); assay: Inhibition of Human immunodeficiency virus 1 integrase-mediated strand transfer activity after 1 hr
[2] = Cytotoxicity against human TZM-bl cells after 48 hrs by MTT assay; format: cell-based
[3] = tested on: Human immunodeficiency virus 1; assay: Antiviral activity against Human immunodeficiency virus 1 infected in human TZM-bl cells assessed as inhibition of viral replication after 48 hrs by inverted microscopic analysis; format: functional, organism-based; settings: Human immunodeficiency virus 1, TZM-bl
[4] = Therapeutic index, ratio of CC50 for human TZM-bl cells to EC50 for Human immunodeficiency virus 1; format: cell-based; settings: read-out: Ratio CC50/EC50

Chain of Human immunodeficiency virus type 1 integrase (Q7ZJM1 whole entry): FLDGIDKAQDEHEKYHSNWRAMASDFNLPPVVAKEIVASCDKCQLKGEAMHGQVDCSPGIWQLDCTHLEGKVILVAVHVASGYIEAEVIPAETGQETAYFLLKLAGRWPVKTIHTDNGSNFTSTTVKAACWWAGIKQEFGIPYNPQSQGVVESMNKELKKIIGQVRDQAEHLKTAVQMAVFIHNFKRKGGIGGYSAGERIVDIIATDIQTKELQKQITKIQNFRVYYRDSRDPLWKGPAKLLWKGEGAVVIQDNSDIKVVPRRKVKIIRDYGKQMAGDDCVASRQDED

**Q.** Which IC50 [1] does the source give for `COc1ccc(/C(O)=C/C(=O)c2nnn(Cc3cccc(F)c3)c2C)cc1OC` here?
**A.** > 50 µM

**Q.** Which IC50 [1] does the source give for `COc1ccc(/C(O)=C/C(=O)c2nnn(Cc3ccc(F)cc3)c2C)cc1` here?
**A.** > 54 µM

**Q.** For `Cc1c(C(=O)/C=C(\O)c2ccc(O)c(O)c2)nnn1Cc1ccc(F)cc1`, which IC50 [1] is on record?
**A.** 40 µM

**Q.** Which IC50 [1] does the source give for `COc1cc(/C(O)=C/C(=O)c2nnn(Cc3ccc(F)cc3)c2C)cc(OC)c1OC` here?
**A.** > 47 µM

**Q.** With `COc1cc(/C(O)=C/C(=O)c2nnn(Cc3cccc(F)c3)c2C)cc(OC)c1OC` as the molecule, how does the IC50 [1] read?
**A.** > 47 µM

**Q.** Which IC50 [1] does the source give for `Cc1c(C(=O)/C=C(\O)c2ccc(O)c(O)c2)nnn1Cc1cccc(F)c1` here?
**A.** 32 µM

**Q.** For `Cc1nnc(C(=O)NC(C)(C)c2nc(C(=O)NCc3ccc(F)cc3)c(O)c(=O)n2C)o1`, which CC50 at 48 h [2] is on record?
**A.** > 30 µM

**Q.** And the EC50 [3]?
**A.** 0.025 µM

**Q.** With `Cc1c(C(=O)/C=C(\O)c2ccc(O)cc2)nnn1Cc1cccc(F)c1` as the molecule, how does the IC50 [1] read?
**A.** > 56 µM

**Q.** With `COc1ccc(/C(O)=C/C(=O)c2nnn(Cc3cccc(F)c3)c2C)cc1` as the molecule, how does the IC50 [1] read?
**A.** > 54 µM

**Q.** For `Cc1c(C(=O)/C=C(\O)c2ccc(O)cc2)nnn1Cc1ccc(F)cc1`, which IC50 [1] is on record?
**A.** > 56 µM

**Q.** What does the source list for `Cc1c(C(=O)/C=C(\O)c2cc(O)c(O)c(O)c2)nnn1Cc1ccc(F)cc1`?
**A.** selectivity ratio [4]: 3.7; CC50 at 48 h [2]: 33.4 µM; IC50 [1]: 2.6 µM; EC50 [3]: 8.92 µM

**Q.** With `Cc1c(C(=O)/C=C(\O)c2ccccc2)nnn1Cc1cccc(F)c1` as the molecule, how does the IC50 [1] read?
**A.** > 59 µM

**Q.** For `COc1ccc(/C(O)=C/C(=O)c2nnn(Cc3ccc(F)cc3)c2C)cc1OC`, which IC50 [1] is on record?
**A.** > 50 µM

**Q.** For `Cc1c(C(=O)/C=C(\O)c2ccccc2)nnn1Cc1ccc(F)cc1`, which IC50 [1] is on record?
**A.** > 59 µM

**Q.** With `Cc1c(C(=O)/C=C(\O)c2cc(O)c(O)c(O)c2)nnn1Cc1cccc(F)c1` as the molecule, how does the selectivity ratio [4] read?
**A.** 5

**Q.** And the CC50 at 48 h [2]?
**A.** 36.6 µM

**Q.** What about the IC50 [1] of the same molecule?
**A.** 0.78 µM

**Q.** What about the EC50 [3] of the same molecule?
**A.** 7.32 µM
